The values that follow are results of earlier work, collected in patent US10874615B2, “Formulation having controlled, delayed release of active ingredient” (Merck Patent GmbH, priority 2015, dated 2020).

The conditions of this data set: after oral administration; first-pass metabolism.

SMILES strings stand for the structures.

As for `CC(C)NCC(O)COc1cccc2ccccc12` (stereo not shown) [propranolol], the bioavailability was 25-30%.
